Assay: Measurement of total area by solid phase microextraction GC/FID method
Format: physicochemical
Design: unit not given here
Conditions: total area attributable to components other than the glyceryl ethers; 1.0 g glyceryl ether, 15 minutes at 50° C., after deodorization for the stated time
Protocol: The total area, as measured using a solid phase microextraction GC/FID method, was measured for each of glyceryl ethers 1 to 12 following the deodorization. Specifically, 1.0 g of a deodorized glyceryl ether was placed in a container, impurities and by-products contained in the glyceryl ether were adsorbed on fibers of DVB/PDMS (divinylbenzene dispersed/polydimethylsiloxane) by heating for 15 minutes at 50° C., these fibers were placed in a holder, and measurements were carried out using gas chromatography (apparatus: GC-2014, produced by Shimadzu Corporation) under the measurement conditions shown below. The total area attributable to components other than the glyceryl ethers was then calculated on the basis of a JIS K 0114 (2012) absolute calibration curve using the analysis software of the chromatography apparatus.
Column: InertCap (registered trademark) PureWAX (length 30 m, film […] 0.50 μm, inner diameter […])
Carrier flow rate: 124.5 mL/min
Injection port temperature: 260° C.
Detector temperature: 260° C.

| SMILES | Total area |
| --- | --- |
| CCCCCCOCC(O)CO (stereo not drawn) [Glyceryl ether 2, Monohexyl glyceryl ether] | 120,000 |
| CCCCCCOCC(O)CO (stereo not drawn) [Glyceryl ether 7, Monohexyl glyceryl ether] | 50,000 |
| CCCCCCOCC(O)CO (stereo not drawn) [Glyceryl ether 5, Monohexyl glyceryl ether] | 60,000 |
| CCCCCCOCC(O)CO (stereo not drawn) [Glyceryl ether 1, Monohexyl glyceryl ether] | 200,000 |
| CCCCCCOCC(O)CO (stereo not drawn) [Glyceryl ether 3, Monohexyl glyceryl ether] | 80,000 |
| CCCCCCOCC(O)CO (stereo not drawn) [Glyceryl ether 4, Monohexyl glyceryl ether] | 80,000 |

Results, then the molecule that gave them:

| Total area | SMILES |
| --- | --- |
| 50,000 | OCC(O)COC1CCCCC1 (stereo not drawn) [Glyceryl ether 12, Monocyclohexyl glyceryl ether] |
| 50,000 | OCC(O)COC1CCCCC1 (stereo not drawn) [Glyceryl ether 11, Monocyclohexyl glyceryl ether] |
| 150,000 | OCC(O)COC1CCCCC1 (stereo not drawn) [Glyceryl ether 9, Monocyclohexyl glyceryl ether] |
| 300,000 | OCC(O)COC1CCCCC1 (stereo not drawn) [Glyceryl ether 8, Monocyclohexyl glyceryl ether] |
| 90,000 | OCC(O)COC1CCCCC1 (stereo not drawn) [Glyceryl ether 10, Monocyclohexyl glyceryl ether] |
| 50,000 | CCCCCCOCC(O)CO (stereo not drawn) [Glyceryl ether 6, Monohexyl glyceryl ether] |
